Measurements reported in ChEMBL document CHEMBL3885881, “DrugMatrix”.

Species on record: Rattus norvegicus
Assay: DrugMatrix - Regimen: Daily Repeat
Assay type: toxicity, organism-based, Sprague-Dawley
Parameters: regimen Daily Repeat, gender Male, age 6-8 weeks
Details: in vivo, po, 30 mg/kg, route oral GAVAGE, dose level Low, vehicle .5 % CMC; for BASOPHIL / EOSINOPHIL / ERYTHROCYTE COUNT / HEMATOCRIT / HEMOGLOBIN / LEUKOCYTE COUNT / LYMPHOCYTE / MEAN CORPUSCULAR HEMOGLOBIN / MEAN CORPUSCULAR HEMOGLOBIN CONCENTRATION / MEAN CORPUSCULAR VOLUME / MONOCYTE / NEUTROPHIL / PLATELET COUNT: tissue Blood; for ALANINE AMINOTRANSFERASE / ALBUMIN / ALKALINE PHOSPHATASE / ASPARTATE AMINOTRANSFERASE / BLOOD UREA NITROGEN / CHLORIDE / CHOLESTEROL / CREATINE PHOSPHOKINASE / CREATININE / GLUCOSE / PHOSPHORUS / POTASSIUM / SODIUM / TOTAL BILIRUBIN / TOTAL PROTEIN: tissue Plasma

## CCCc1cc(=O)[nH]c(=S)[nH]1 [PROPYLTHIOURACIL]
72 h, time 3 day
  BASOPHIL: 0%
  EOSINOPHIL: 0.67%
  ERYTHROCYTE COUNT: 5.84 x10E6/uL
  HEMATOCRIT: 36.23%
  HEMOGLOBIN: 14.13 G/DL
  LEUKOCYTE COUNT: 20.27 x10E3/uL
  LYMPHOCYTE: 89.33%
  MEAN CORPUSCULAR HEMOGLOBIN: 24.23 pg
  MEAN CORPUSCULAR HEMOGLOBIN CONCENTRATION: 39 G/DL
  MEAN CORPUSCULAR VOLUME: 62.03 fL
  MONOCYTE: 2%
  NEUTROPHIL: 8%
  PLATELET COUNT: 1163.33 x10E3/uL
  ALANINE AMINOTRANSFERASE: 44 u/L
  ALBUMIN: 3.73 G/DL
  ALKALINE PHOSPHATASE: 305.67 u/L
  ASPARTATE AMINOTRANSFERASE: 56 u/L
  BLOOD UREA NITROGEN: 11 mg/dL
  CHLORIDE: 106.33 MEQ/L
  CHOLESTEROL: 78 mg/dL
  CREATINE PHOSPHOKINASE: 125.67 u/L
  CREATININE: 0.47 mg/dL
  GLUCOSE: 167.33 mg/dL
  PHOSPHORUS: 11 mg/dL
  POTASSIUM: 6.5 MEQ/L
  SODIUM: 152 MEQ/L
  TOTAL BILIRUBIN: 0.3 mg/dL
  TOTAL PROTEIN: 5.9 G/DL
120 h, time 5 day
  BASOPHIL: 0%
  EOSINOPHIL: 0%
  ERYTHROCYTE COUNT: 6.26 x10E6/uL
  HEMATOCRIT: 37.07%
  HEMOGLOBIN: 14.77 G/DL
  LEUKOCYTE COUNT: 11.7 x10E3/uL
  LYMPHOCYTE: 87%
  MEAN CORPUSCULAR HEMOGLOBIN: 23.6 pg
  MEAN CORPUSCULAR HEMOGLOBIN CONCENTRATION: 39.83 G/DL
  MEAN CORPUSCULAR VOLUME: 59.2 fL
  MONOCYTE: 1.67%
  NEUTROPHIL: 11.33%
  PLATELET COUNT: 1185.67 x10E3/uL
  ALANINE AMINOTRANSFERASE: 32.67 u/L
  ALBUMIN: 3.53 G/DL
  ALKALINE PHOSPHATASE: 297.33 u/L
  ASPARTATE AMINOTRANSFERASE: 51.67 u/L
  BLOOD UREA NITROGEN: 13.33 mg/dL
  CHLORIDE: 108.33 MEQ/L
  CHOLESTEROL: 68 mg/dL
  CREATINE PHOSPHOKINASE: 112 u/L
  CREATININE: 0.53 mg/dL
  GLUCOSE: 180.33 mg/dL
  PHOSPHORUS: 10.03 mg/dL
  POTASSIUM: 6.8 MEQ/L
  SODIUM: 149 MEQ/L
  TOTAL BILIRUBIN: 0.23 mg/dL
  TOTAL PROTEIN: 5.7 G/DL
